Laboratory results reported in US4247706A, “Dibenzothiepin derivatives and a process for producing the same” (Nippon Chemiphar Co., Ltd., priority 1978, dated 1981).

Experiments:
[1] = test system: edema in the hind paws (carrageenan); assay: Antiinflammatory effect: carrageenan-induced edema of the hind paws; assay type: in vivo, Male Wister rats; conditions: oral, rat; for Inhibition (%) (after 3 hours): 1% carrageenan edema
Procedure: Male Wister rats each weighing about 100 g, one group consisting of 5 to 7 rats, were orally given test compounds, and edema was then induced in the hind paws by a subcutaneous injection of 0.1 ml of a 1% carrageenan saline solution one hour after the administration of the test compounds. With a predetermined lapse of time, the volumes of the hind paws were measured by a volume differential meter. Indomethacin was used as an active placebo.

[2] = test system: writhing syndromes (acetic acid); assay: Analgesic effect: acetic acid-induced writhing syndromes; assay type: in vivo, dd Male mice; conditions: oral, mouse, 0.6% acetic acid writhing within 20 minutes
Procedure: dd Male mice each weighing 18 to 22 g, one group consisting of 10 mice, were given by an intraperitoneal injection of 0.6% acetic acid in a dosage of 0.1 ml/10 g/body weight. The number of writhing syndromes occurring within 20 minutes after the injection was observed. These animals were given orally test compounds suspended in a 0.2% carboxymethylcellulose solution 30 minutes before the injection of acetic acid. The inhibitory percentage of each of the test compounds was calculated in comparison with a control in which a 0.2% carboxymethylcellulose solution only was given. Aspirin was used as an active placebo.

[3] = LD50 by the Lichfield-Wilcoxon method; conditions: rat, in vivo, rats
Description: This fact confirms the excellent effects of the present compounds.

Structure (SMILES)	Inhibition (%) (after 3 hours) ([1]; 2 mg/kg)	Analgesic activity (ratio to Aspirin) [2]	Antiinflammatory activity (ratio to Indomethacin) [1]	LD50 [3] [mg/kg]	Inhibition (%) (after 3 hours) ([1]; 4 mg/kg)
CC(C(N)=O)c1ccc2c(c1)CC(=O)c1ccccc1S2 (centres unmarked) [Compound 1, 2-(10,11-Dihydro-10-oxodibenzo[b,f]thiepin-2-yl)-propionamide]	52.5	–	–	–	–
CC(C(=O)O)c1ccc2c(c1)CC(=O)c1ccccc1S2 (centres unmarked) [Compound 2, 2-(10,11-Dihydro-10-oxodibenzo[b,f]thiepin-2-yl)-propionic acid]	55.8	20	2	232	–
O=C(O)Cc1ccc2c(c1)CC(=O)c1ccccc1S2 [Comparative compound A]	–	1	0.01	–	–
COc1ccc2c(c1)c(CC(=O)O)c(C)n2C(=O)c1ccc(Cl)cc1 [Indomethacin]	35.9	–	–	–	51.9
O=C(O)Cc1ccc2c(c1)Sc1ccccc1C(=O)C2 [Comparative compound B]	–	1	0.01	–	–
